What is called IC50 is the midpoint of a concentration-inhibition curve. Low values mean inhibition by little substance, high ones a need for much substance.

Bounds are passed on as bounds.

For the assay, the target named is T1, Human thrombin (Homo sapiens, UniProt P00734).
T1 construct: purchased Haematologic Technologies Inc
The assay can be described thus: Thrombin protease activity inhibition, chromogenic substrate S-2238. Format: biochemical. Conditions: 3 nM thrombin, 125 μM S-2238, 10 min pre-incubation, RT. How it is done: The thrombin activity reported herein (e.g., Table A) was obtained as follows. […] Thrombin was assayed in buffer containing 0.05 M Tris (pH 7.4), 0.015 M NaCl and 0.01% PEG-8000. The final concentration of enzyme used was 3 nM thrombin. […] All assays were performed in 96-well microtiter plates at room temperature (RT). […] Inhibitor IC50 values were determined by adding test compound as ten point, three-fold serial dilutions in buffer solution, as known in the art. The plate was read at 10 minutes after substrate addition. The IC50 was calculated by plotting the percent (%) inhibition against compound concentration and fitting the data to a constrained four parameter sigmoidal curve, as known in the art.
For `COc1ccccc1C(=O)n1nc(C2(C)CCCN(C(=O)OC(C)(C)C)C2)cc1NCc1ccc(Cl)s1` (centres unmarked) [Entry 280, tert-butyl 3-(5-[(5-chlorothiophen-2-yl)methyl]amino-1-(2-methoxybenzoyl)-1H-pyrazol-3-yl)-3-methylpiperidine-1-carboxylate], the IC50 is under 0.1 µM.

Take `COc1ccccc1C(=O)n1nc(C2CCCN2C(=O)C(C)C)cc1NCc1ccc(Cl)s1` (centres unmarked) [Entry 91, 1-[2-(5-[(5-chlorothiophen-2-yl)methyl]amino-1-(2-methoxybenzoyl)-1H-pyrazol-3-yl)pyrrolidin-1-yl]-2-methylpropan-1-one]: the IC50 lay within 0.1 to 1 µM.

As for `CC(C)(C)OC(=O)N1CCCC1(C)c1cc(NCc2ccc(Cl)s2)n(C(=O)C2(C)CCOCC2)n1` (centres unmarked) [Entry 275, tert-butyl 2-(5-[(5-chlorothiophen-2-yl)methyl]amino-1-(4-methyloxane-4-carbonyl)-1H-pyrazol-3-yl)-2-methylpyrrolidine-1-carboxylate], the IC50 lay within 1 to 10 µM.

In the case of `CC(C)(C)C(=O)n1nc(C2CCN(Cc3ccccc3)CC2)cc1NCc1ccc(Cl)s1` [Entry 95, 1-[3-(1-benzylpiperidin-4-yl)-5-[(5-chlorothiophen-2-yl)methyl]amino-1H-pyrazol-1-yl]-2,2-dimethylpropan-1-one], the IC50 is under 0.1 µM.

Consider `C=CCOC(=O)N1C2CCC1CC(c1cc(NCc3ccc(Cl)s3)[nH]n1)C2` (centres unmarked) [Entry 257, prop-2-en-1-yl 3-(5-[(5-chlorothiophen-2-yl)methyl]amino-1H-pyrazol-3-yl)-8-azabicyclo[3.2.1]octane-8-carboxylate], for which the IC50 was 10 to 100 µM.

In turn, `CC(C)(C)OC(=O)N1CCCC(C)(c2cc(NCc3ccc(Cl)s3)n(C(=O)C(C)(C)CO)n2)C1` (centres unmarked) [Entry 282, tert-butyl 3-(5-[(5-chlorothiophen-2-yl)methyl]amino-1-(3-hydroxy-2,2-dimethylpropanoyl)-1H-pyrazol-3-yl)-3-methylpiperidine-1-carboxylate] showed an IC50 of under 0.1 µM.

As for `C=CCOC(=O)N1CCC(c2nn(C(=O)C(C)(C)C)c(NCc3ccc(Cl)s3)c2C)CC1` [Entry 264, prop-2-en-1-yl 4-(5-[(5-chlorothiophen-2-yl)methyl]amino-1-(2,2-dimethylpropanoyl)-4-methyl-1H-pyrazol-3-yl)piperidine-1-carboxylate], the IC50 is under 0.1 µM.

On to `Clc1ccc(CNc2cc(C3CCN(Cc4c[nH]cn4)CC3)n[nH]2)s1` [Entry 197, N-[(5-chlorothiophen-2-yl)methyl]-3-[1-(1H-imidazol-4-ylmethyl)piperidin-4-yl]-1H-pyrazol-5-amine], for which the IC50 lay in the range of 1 to 10 µM.

As for `Clc1ccc(CNc2cc(C3CCCN3)n[nH]2)s1` (centres unmarked) [Entry 189, N-[(5-chlorothiophen-2-yl)methyl]-3-(pyrrolidin-2-yl)-1H-pyrazol-5-amine], the 50% inhibitory concentration (IC50) is over 100 µM.

`Clc1ccc(CNc2cc(C3CCNC3)n[nH]2)s1` (centres unmarked) [Entry 190, N-[(5-chlorothiophen-2-yl)methyl]-3-(pyrrolidin-3-yl)-1H-pyrazol-5-amine] returned an IC50 of 1 to 10 µM.

`Clc1ccc(CNc2cc(C3CCN(CCN4CCOCC4)CC3)n[nH]2)s1` [Entry 223, N-[(5-chlorothiophen-2-yl)methyl]-3-1-[2-(morpholin-4-yl)ethyl]piperidin-4-yl-1H-pyrazol-5-amine] gave an IC50 of 1 to 10 µM.

In turn, `CC(C)(C)OC(=O)N1CCC(c2cc(NCc3ccc(Cl)s3)n(C(=O)C(C)(C)C)n2)CC1` [Entry 292, tert-butyl 4-(5-[(5-chlorothiophen-2-yl)methyl]amino-1-(2,2-dimethylpropanoyl)-1H-pyrazol-3-yl)piperidine-1-carboxylate] gave an IC50 of under 0.1 µM.

Compound `Clc1ccc(CNc2cc(C3CCCO3)n[nH]2)s1` (centres unmarked) [Entry 184, N-[(5-chlorothiophen-2-yl)methyl]-3-(oxolan-2-yl)-1H-pyrazol-5-amine] returned an IC50 of over 100 µM.

Consider `CC1(C(=O)n2nc(C3CCOCC3)c(F)c2NCc2ccc(Cl)s2)CCOCC1` [Entry 229, N-[(5-chlorothiophen-2-yl)methyl]-4-fluoro-1-(4-methyloxane-4-carbonyl)-3-(oxan-4-yl)-1H-pyrazol-5-amine], for which the concentration for half-maximal inhibition (IC50) is under 0.1 µM.

For `CN(C)C(=O)N1CCC(c2cc(NCc3ccc(Cl)s3)n(C(=O)N(C)C)n2)CC1` [Entry 136, 4-(5-[(5-chlorothiophen-2-yl)methyl]amino-1-(dimethylcarbamoyl)-1H-pyrazol-3-yl)-N,N-dimethylpiperidine-1-carboxamide], the IC50 was over 100 µM.

In turn, `CS(=O)(=O)N1C2CCC1CC(c1cc(NCc3ccc(Cl)s3)n(C(=O)c3cscn3)n1)C2` (centres unmarked) [Entry 225, N-[(5-chlorothiophen-2-yl)methyl]-3-8-methanesulfonyl-8-azabicyclo[3.2.1]octan-3-yl-1-(1,3-thiazole-4-carbonyl)-1H-pyrazol-5-amine] had an IC50 of under 0.1 µM.

`CC1(c2cc(NCc3ccc(Cl)s3)n(C(=O)c3ccsc3)n2)CCCNC1` (centres unmarked) [Entry 178, N-[(5-chlorothiophen-2-yl)methyl]-3-(3-methylpiperidin-3-yl)-1-(thiophene-3-carbonyl)-1H-pyrazol-5-amine]: the IC50 fell in the range of 0.1 to 1 µM.

`FC(F)(F)C(c1ccccn1)N1CCC(c2cc(NCc3ccc(Cl)s3)[nH]n2)CC1` (centres unmarked) [Entry 221, N-[(5-chlorothiophen-2-yl)methyl]-3-1-[2,2,2-trifluoro-1-(pyridin-2-yl)ethyl]piperidin-4-yl-1H-pyrazol-5-amine] showed a half-inhibitory concentration (IC50) of over 100 µM.

`O=C(N1CCOCC1)N1C2CCC1CC(c1cc(NCc3ccc(Cl)s3)[nH]n1)C2` (centres unmarked) [Entry 214, N-[(5-chlorothiophen-2-yl)methyl]-3-[8-(morpholine-4-carbonyl)-8-azabicyclo[3.2.1]octan-3-yl]-1H-pyrazol-5-amine] had an IC50 of over 100 µM.

For the compound `COc1ccccc1C(=O)n1nc(C2CCCN2C(=O)C(C)(C)C)cc1NCc1ccc(Cl)s1` (centres unmarked) [Entry 90, 1-[2-(5-[(5-chlorothiophen-2-yl)methyl]amino-1-(2-methoxybenzoyl)-1H-pyrazol-3-yl)pyrrolidin-1-yl]-2,2-dimethylpropan-1-one], the concentration for half-maximal inhibition (IC50) is 0.1 to 1 µM.

`CN(C)C(=O)N1CCC(c2cc(NCc3ccc(Cl)s3)[nH]n2)CC1` [Entry 137, 4-(5-[(5-chlorothiophen-2-yl)methyl]amino-1H-pyrazol-3-yl)-N,N-dimethylpiperidine-1-carboxamide] gave an IC50 of over 100 µM.

The compound `CC(C)(C)C(=O)N1CCC(c2cc(NCc3ccc(Cl)s3)n(C(=O)c3ccsc3)n2)CC1` [Entry 101, 1-[4-(5-[(5-chlorothiophen-2-yl)methyl]amino-1-(thiophene-3-carbonyl)-1H-pyrazol-3-yl)piperidin-1-yl]-2,2-dimethylpropan-1-one] came in with an IC50 of under 0.1 µM.

`CC1(C(=O)n2nc(C3(C)CCCNC3)cc2NCc2ccc(Cl)s2)CCOCC1` (centres unmarked) [Entry 162, N-[(5-chlorothiophen-2-yl)methyl]-1-(4-methyloxane-4-carbonyl)-3-(3-methylpiperidin-3-yl)-1H-pyrazol-5-amine]: the IC50 lay within 1 to 10 µM.

The compound `Clc1ccc(CNc2cc(C3CCOCC3)n[nH]2)s1` [Entry 182, N-[(5-chlorothiophen-2-yl)methyl]-3-(oxan-4-yl)-1H-pyrazol-5-amine] displayed an IC50 of over 100 µM.

The compound `COc1ccccc1C(=O)n1nc(C2CCCN(C(=O)OC(C)(C)C)C2)cc1NCc1ccc(Cl)s1` (centres unmarked) [Entry 281, tert-butyl 3-(5-[(5-chlorothiophen-2-yl)methyl]amino-1-(2-methoxybenzoyl)-1H-pyrazol-3-yl)piperidine-1-carboxylate] yielded an IC50 of under 0.1 µM.

With `CS(=O)(=O)N1CCCC1c1cc(NCc2ccc(Cl)s2)[nH]n1` (centres unmarked) [Entry 174, N-[(5-chlorothiophen-2-yl)methyl]-3-(1-methanesulfonylpyrrolidin-2-yl)-1H-pyrazol-5-amine], the IC50 is over 100 µM.

Take `FC(F)(F)c1cccc(CN2CCC(c3cc(NCc4ccc(Cl)s4)[nH]n3)CC2)n1` [Entry 176, N-[(5-chlorothiophen-2-yl)methyl]-3-(1-[6-(trifluoromethyl)pyridin-2-yl]methylpiperidin-4-yl)-1H-pyrazol-5-amine]: the half-inhibitory concentration (IC50) is over 100 µM.

For the compound `COc1ccccc1C(=O)n1nc(C2(C)CCN(C(=O)OC(C)(C)C)CC2)cc1NCc1ccc(Cl)s1` [Entry 294, tert-butyl 4-(5-[(5-chlorothiophen-2-yl)methyl]amino-1-(2-methoxybenzoyl)-1H-pyrazol-3-yl)-4-methylpiperidine-1-carboxylate], the IC50 is under 0.1 µM.

On to `C=CCOC(=O)N1CCN(C(=O)N2CCOCC2)CC1c1cc(NCc2ccc(Cl)s2)[nH]n1` (centres unmarked) [Entry 249, prop-2-en-1-yl 2-(5-[(5-chlorothiophen-2-yl)methyl]amino-1H-pyrazol-3-yl)-4-(morpholine-4-carbonyl)piperazine-1-carboxylate], for which the IC50 was over 100 µM.

For `O=S(=O)(N1CCOCC1)N1CCC(c2cc(NCc3ccc(Cl)s3)[nH]n2)CC1` [Entry 207, N-[(5-chlorothiophen-2-yl)methyl]-3-[1-(morpholine-4-sulfonyl)piperidin-4-yl]-1H-pyrazol-5-amine], the IC50 is over 100 µM.

Compound `C=CCOC(=O)N1CCCC1c1cc(NCc2ccc(Cl)s2)[nH]n1` (centres unmarked) [Entry 253, prop-2-en-1-yl 2-(5-[(5-chlorothiophen-2-yl)methyl]amino-1H-pyrazol-3-yl)pyrrolidine-1-carboxylate] returned an IC50 of over 100 µM.

The compound `C=CCOC(=O)N1CCCC1c1cc(NCc2ccc(Cl)s2)n(C(=O)c2cscn2)n1` (centres unmarked) [Entry 243, prop-2-en-1-yl 2-(5-[(5-chlorothiophen-2-yl)methyl]amino-1-(1,3-thiazole-4-carbonyl)-1H-pyrazol-3-yl)pyrrolidine-1-carboxylate] showed an IC50 of under 0.1 µM.

The values are drawn from US10532995B2, “Substituted pyrazole compounds as serine protease inhibitors” (VERSEON CORPORATION, priority 2015, dated 2020).
